Reference: EP2987533B1, “7-substituted piperazin-1-yl fluoroquinolone compounds, their use in the treatment of cancer, pharmaceutical compositions and a method for preparation” (priority 2014, dated 2016)

Legend:
Assay in all cases: NCI five-dose SRB growth assay
Format in all cases: cell-based
OVCAR-3 = conditions: Homo sapiens; OVCAR-3 (Ovarian Cancer), 48 h
COLO 205 = conditions: Homo sapiens; COLO 205 (Colon Cancer), 48 h
DU-145 = conditions: Homo sapiens; DU-145 (Prostate Cancer), 48 h
OVCAR-5 = conditions: Homo sapiens; OVCAR-5 (Ovarian Cancer), 48 h
NCI-H23 = conditions: Homo sapiens; NCI-H23 (Non-Small Cell Lung Cancer), 48 h
SNB-19 = conditions: Homo sapiens; SNB-19 (CNS Cancer), 48 h
MCF7 = conditions: Homo sapiens; MCF7 (Breast Cancer), 48 h
CCRF-CEM = conditions: Homo sapiens; CCRF-CEM (Leukemia), 48 h
BT-549 = conditions: Homo sapiens; BT-549 (Breast Cancer), 48 h
UO-31 = conditions: Homo sapiens; UO-31 (Renal Cancer), 48 h
MDA-MB-435 = conditions: Homo sapiens; MDA-MB-435 (Melanoma), 48 h
NCI-H226 = conditions: Homo sapiens; NCI-H226 (Non-Small Cell Lung Cancer), 48 h
M14 = conditions: Homo sapiens; M14 (Melanoma), 48 h
HT29 = conditions: Homo sapiens, HT-29; HT29 (Colon Cancer), 48 h
HCC-2998 = conditions: Homo sapiens; HCC-2998 (Colon Cancer), 48 h
CAKI-1 = conditions: Homo sapiens; CAKI-1 (Renal Cancer), 48 h
KM12 = conditions: Homo sapiens; KM12 (Colon Cancer), 48 h
SK-MEL-2 = conditions: Homo sapiens; SK-MEL-2 (Melanoma), 48 h
NCI-H460 = conditions: Homo sapiens; NCI-H460 (Non-Small Cell Lung Cancer), 48 h
RXF 393 = conditions: Homo sapiens; RXF 393 (Renal Cancer), 48 h
MDA-MB-468 = conditions: Homo sapiens; MDA-MB-468 (Breast Cancer), 48 h
ACHN = conditions: Homo sapiens; ACHN (Renal Cancer), 48 h
786-0 = conditions: Homo sapiens; 786-0 (Renal Cancer), 48 h
HL-60(TB) = conditions: Homo sapiens; HL-60(TB) (Leukemia), 48 h
NCI-H522 = conditions: Homo sapiens; NCI-H522 (Non-Small Cell Lung Cancer), 48 h
A549/ATCC = conditions: Homo sapiens; A549/ATCC (Non-Small Cell Lung Cancer), 48 h
SW-620 = conditions: Homo sapiens; SW-620 (Colon Cancer), 48 h
IGROV1 = conditions: Homo sapiens, IGROV-1; IGROV1 (Ovarian Cancer), 48 h
MALME-3M = conditions: Homo sapiens; MALME-3M (Melanoma), 48 h
UACC-62 = conditions: Homo sapiens; UACC-62 (Melanoma), 48 h
SK-MEL-5 = conditions: Homo sapiens; SK-MEL-5 (Melanoma), 48 h
OVCAR-8 = conditions: Homo sapiens; OVCAR-8 (Ovarian Cancer), 48 h
U251 = conditions: Homo sapiens, U-251; U251 (CNS Cancer), 48 h
PC-3 = conditions: Homo sapiens; PC-3 (Prostate Cancer), 48 h
SF-539 = conditions: Homo sapiens; SF-539 (CNS Cancer), 48 h
SK-MEL-28 = conditions: Homo sapiens; SK-MEL-28 (Melanoma), 48 h
HOP-92 = conditions: Homo sapiens; HOP-92 (Non-Small Cell Lung Cancer), 48 h
HCT-15 = conditions: Homo sapiens; HCT-15 (Colon Cancer), 48 h
SK-OV-3 = conditions: Homo sapiens; SK-OV-3 (Ovarian Cancer), 48 h

SMILES | GI50 (OVCAR-3) | GI50 (COLO 205) | GI50 (DU-145) | GI50 (NCI-H23) | GI50 (SNB-19) | GI50 (MCF7) | GI50 (CCRF-CEM) | GI50 (BT-549) | GI50 (UO-31) | GI50 (NCI-H226) | GI50 (M14) | GI50 (HT29) | GI50 (HCC-2998) | GI50 (CAKI-1) | GI50 (KM12) | GI50 (NCI-H460) | GI50 (RXF 393) | GI50 (MDA-MB-468) | GI50 (ACHN) | GI50 (786-0) | also measured
O=C(O)c1cn(C2CC2)c2cc(N3CCN(S(=O)(=O)c4ccc(Cl)c(Cl)c4)CC3)c(F)cc2c1=O [Compound 3b] | 3.9 µM | 3.5 µM | 4.31 µM | 2.9 µM | 3.25 µM | 2.84 µM | 2.61 µM | 2.98 µM | 2.58 µM | 3.58 µM | 4.06 µM | 3.77 µM | 4.47 µM | 2.71 µM | 3.62 µM | 3.66 µM | 2.98 µM | 2.25 µM | 3.1 µM | 4.02 µM | GI50 (OVCAR-5): 4.14 µM; GI50 (MDA-MB-435): 2.97 µM; GI50 (SK-MEL-2): 3.16 µM; GI50 (HL-60(TB)): 2.04 µM; GI50 (NCI-H522): 1.99 µM; GI50 (A549/ATCC): 3.08 µM; GI50 (SW-620): 4.05 µM; GI50 (IGROV1): 2.73 µM; GI50 (MALME-3M): 2.3 µM; GI50 (UACC-62): 1.75 µM; GI50 (SK-MEL-5): 2.04 µM; GI50 (OVCAR-8): 3.33 µM; GI50 (U251): 3.33 µM; GI50 (PC-3): 2.46 µM; GI50 (SF-539): 3.39 µM; GI50 (SK-MEL-28): 2.67 µM; GI50 (HOP-92): 1.54 µM; GI50 (HCT-15): 3.3 µM
CCn1cc(C(=O)O)c(=O)c2cc(F)c(N3CCN(S(=O)(=O)c4ccc(Cl)cc4)CC3)cc21 [Compound 1a] | 3.51 µM | 2.62 µM | 4.11 µM | 2.67 µM | 3.97 µM | 2.97 µM | 2.93 µM | 2.44 µM | 2.07 µM | 3.02 µM | 2.85 µM | 2.64 µM | 4.1 µM | 2.75 µM | 4.07 µM | 3.16 µM | 3.32 µM | 2.1 µM | 3.09 µM | 3.77 µM | GI50 (OVCAR-5): 4.25 µM; GI50 (MDA-MB-435): 2.47 µM; GI50 (SK-MEL-2): 2.57 µM; GI50 (HL-60(TB)): 2.18 µM; GI50 (NCI-H522): 1.73 µM; GI50 (A549/ATCC): 2.81 µM; GI50 (SW-620): 3.43 µM; GI50 (IGROV1): 3.14 µM; GI50 (MALME-3M): 1.99 µM; GI50 (UACC-62): 2.02 µM; GI50 (SK-MEL-5): 1.8 µM; GI50 (OVCAR-8): 2.8 µM; GI50 (U251): 3.1 µM; GI50 (PC-3): 2.31 µM; GI50 (SF-539): 4.12 µM; GI50 (SK-MEL-28): 4.88 µM; GI50 (SK-OV-3): 3.28 µM; GI50 (HCT-15): 3.62 µM
CCn1cc(C(=O)O)c(=O)c2cc(F)c(N3CCN(S(=O)(=O)c4cccc5ccccc45)CC3)cc21 [Compound 7a] | 3.69 µM | 2.02 µM | 3.97 µM | 3.13 µM | 3.47 µM | 2.72 µM | 3.67 µM | 3.7 µM | 2.21 µM | 3.71 µM | 4.37 µM | 3.95 µM | 4.26 µM | 2.33 µM | 2.96 µM | 3.43 µM | 3.19 µM | 2.52 µM | 2.88 µM | 4.5 µM | GI50 (OVCAR-5): 3.38 µM; GI50 (MDA-MB-435): 3.13 µM; GI50 (SK-MEL-2): 3.55 µM; GI50 (HL-60(TB)): 2.58 µM; GI50 (NCI-H522): 2.78 µM; GI50 (A549/ATCC): 2.87 µM; GI50 (SW-620): 3.57 µM; GI50 (IGROV1): 2.47 µM; GI50 (MALME-3M): 2.83 µM; GI50 (UACC-62): 2.25 µM; GI50 (SK-MEL-5): 2.24 µM; GI50 (OVCAR-8): 3.09 µM; GI50 (U251): 3.29 µM; GI50 (PC-3): 2.66 µM; GI50 (SF-539): 2.43 µM; GI50 (SK-MEL-28): 6.09 µM; GI50 (HOP-92): 1.25 µM; GI50 (SK-OV-3): 3.11 µM; GI50 (HCT-15): 3.15 µM
Cc1cc(C)c(S(=O)(=O)N2CCN(c3cc4c(cc3F)c(=O)c(C(=O)O)cn4C3CC3)CC2)c(C)c1 [Compound 6b] | 3.17 µM | 3.4 µM | 3.4 µM | 3.41 µM | 2.56 µM | 2.59 µM | 2.8 µM | 3.34 µM | 1.96 µM | 1.23 µM | 4.69 µM | 3.15 µM | 5.37 µM | 1.8 µM | 3.38 µM | 3.04 µM | 2.41 µM | 1.97 µM | 2.46 µM | 4.08 µM | GI50 (NCI-H522): 2.8 µM; GI50 (A549/ATCC): 2.23 µM; GI50 (SW-620): 3.4 µM; GI50 (IGROV1): 2.66 µM; GI50 (UACC-62): 2.43 µM; GI50 (SK-MEL-5): 3.03 µM; GI50 (OVCAR-8): 2.87 µM; GI50 (U251): 2.89 µM; GI50 (SF-539): 3.14 µM; GI50 (HOP-92): 1.52 µM; GI50 (SK-OV-3): 3.02 µM; GI50 (HCT-15): 2.55 µM
